{"source": "patent EP2818472A1", "about": "“Imidazo[4,5-c]pyridine and pyrrolo[3,2-c]pyridine compounds as G-protein-coupled receptor kinase 5 (GRK5) modulators” (Max-Planck-Gesellschaft zur Förderung der Wissenschaften …, priority 2013, dated 2014)"}
{"test_system": "beta-TC6 cells", "experiment": "Insulin HTRF assay (relative activity Ar) in beta-TC6 cells", "type": "cell-based, mouse", "conditions": "Mus musculus, Beta-TC6, 4 h, insulin HTRF, supernatant of beta-TC6 cells, incubation with test compound at 37°C for 2, 3, 4h; read-out: Ar (relative activity)", "how_it_was_run": "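beta-TC6 cells (15k/well, seeded 24 or 48 h) washed, then exposed to compound in induction buffer (0.5% DMSO final) for 2, 3 or 4 h at 37°C.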", "units": {"Emax": "%"}}
{"molecule": "CSc1ccc(Nc2cc3c(cn2)cc(-c2cnn(C)c2)n3C)cc1", "note": "[Compound 153, 1-methyl-2-(1-methylpyrazol-4-yl)-N-(4-methylsulfanylphenyl)pyrrolo[3,2-c]pyridin-6-amine]", "Emax": "30 to 50"}
{"molecule": "CN1CCN(c2cc3c(cn2)cc(-c2cnn(C)c2)n3Cc2ccccc2)CC1", "note": "[Compound 154, 1-benzyl-6-(4-methylpiperazin-1-yl)-2-(1-methylpyrazol-4-yl)pyrrolo[3,2-c]pyridine]", "Emax": "30 to 50"}
{"molecule": "Cn1cc(-c2cc3cnc(N4CCOCC4)cc3n2Cc2ccccc2)cn1", "note": "[Compound 155, 4-[1-benzyl-2-(1-methylpyrazol-4-yl)pyrrolo[3,2-c]pyridin-6-yl]morpholine]", "Emax": "50 to 100"}
{"molecule": "Cn1cc(-c2cc3cnc(Nc4cccc(NS(C)(=O)=O)c4)cc3n2Cc2ccccc2)cn1", "note": "[Compound 156, N-[3-[[1-benzyl-2-(1-methylpyrazol-4-yl)pyrrolo[3,2-c]pyridin-6-yl]amino]phenyl]methanesulfonamide]", "Emax": "30 to 50"}
{"molecule": "CC(=O)Nc1cccc(Nc2cc3c(cn2)cc(-c2cnn(C)c2)n3Cc2ccccc2)c1", "note": "[Compound 157, N-[3-[[1-benzyl-2-(1-methylpyrazol-4-yl)pyrrolo[3,2-c]pyridin-6-yl]amino]phenyl]acetamide]", "Emax": "50 to 100"}
{"molecule": "COc1cc(Nc2cc3c(cn2)cc(-c2cccc(N(C)C(C)=O)c2)n3C)cc(OC)c1OC", "note": "[Compound 158, N-methyl-N-[3-[1-methyl-6-(3,4,5-trimethoxyanilino)pyrrolo[3,2-c]pyridin-2-yl]phenyl]acetamide]", "Emax": "50 to 100"}
{"molecule": "CC(=O)N(C)c1cccc(-c2cc3cnc(Nc4ccc(C(N)=O)cc4)cc3n2C)c1", "note": "[Compound 159, 4-[[2-[3-[acetyl(methyl)amino]phenyl]-1-methyl-pyrrolo[3,2-c]pyridin-6-yl]amino]benzamide]", "Emax": "50 to 100"}
{"molecule": "COc1ccc(Nc2cc3c(cn2)cc(-c2cccc(N(C)C(C)=O)c2)n3C)cc1OC", "note": "[Compound 160, N-[3-[6-(3,4-dimethoxyanilino)-1-methyl-pyrrolo[3,2-c]pyridin-2-yl]phenyl]-N-methyl-acetamide]", "Emax": "50 to 100"}
{"molecule": "COc1ccc(Nc2cc3c(cn2)cc(-c2cccc(N(C)C(C)=O)c2)n3C)cn1", "note": "[Compound 161, N-[3-[6-[(6-methoxy-3-pyridyl)amino]-1-methyl-pyrrolo[3,2-c]pyridin-2-yl]phenyl]-N-methyl-acetamide]", "Emax": "50 to 100"}
{"molecule": "CC(=O)N(C)c1cccc(-c2cc3cnc(Nc4cccnc4)cc3n2C)c1", "note": "[Compound 162, N-methyl-N-[3-[1-methyl-6-(3-pyridylamino)pyrrolo[3,2-c]pyridin-2-yl]phenyl]acetamide]", "Emax": "50 to 100"}
{"molecule": "CC(=O)N(C)c1cccc(-c2cc3cnc(Nc4ccc(N5CCOCC5)cc4)cc3n2C)c1", "note": "[Compound 163, N-methyl-N-[3-[1-methyl-6-(4-morpholinoanilino)pyrrolo[3,2-c]pyridin-2-yl]phenyl]acetamide]", "Emax": "50 to 100"}
{"molecule": "CC(=O)N(C)c1cccc(-c2cc3cnc(Nc4ccc(N5CCN(C)CC5)cc4)cc3n2C)c1", "note": "[Compound 164, N-methyl-N-[3-[1-methyl-6-[4-(4-methylpiperazin-1-yl)anilino]pyrrolo[3,2-c]pyridin-2-yl]phenyl]acetamide]", "Emax": "50 to 100"}
{"molecule": "CC(=O)N(C)c1cccc(-c2cc3cnc(Nc4cccc(N(C)C)c4)cc3n2C)c1", "note": "[Compound 165, N-[3-[6-[3-(dimethylamino)anilino]-1-methyl-pyrrolo[3,2-c]pyridin-2-yl]phenyl]-N-methyl-acetamide]", "Emax": "> 100"}
{"molecule": "COc1ccc(Nc2cc3c(cn2)cc(-c2cccc(N(C)C(C)=O)c2)n3C)cc1", "note": "[Compound 166, N-[3-[6-(4-methoxyanilino)-1-methyl-pyrrolo[3,2-c]pyridin-2-yl]phenyl]-N-methyl-acetamide]", "Emax": "30 to 50"}
{"molecule": "CC(=O)N(C)c1cccc(-c2cc3cnc(Nc4ccccn4)cc3n2C)c1", "note": "[Compound 167, N-methyl-N-[3-[1-methyl-6-(2-pyridylamino)pyrrolo[3,2-c]pyridin-2-yl]phenyl]acetamide]", "Emax": "30 to 50"}
{"molecule": "CC(=O)N(C)c1cccc(-c2cc3cnc(Nc4ccc(C#N)cc4)cc3n2C)c1", "note": "[Compound 168, N-[3-[6-(4-cyanoanilino)-1-methyl-pyrrolo[3,2-c]pyridin-2-yl]phenyl]-N-methyl-acetamide]", "Emax": "30 to 50"}
{"molecule": "CC(=O)N(C)c1cccc(-c2cc3cnc(Nc4ccc5c(c4)OCO5)cc3n2C)c1", "note": "[Compound 169, N-[3-[6-(1,3-benzodioxol-5-ylamino)-1-methyl-pyrrolo[3,2-c]pyridin-2-yl]phenyl]-N-methyl-acetamide]", "Emax": "30 to 50"}
{"molecule": "CC(=O)N(C)c1cccc(-c2cc3cnc(Nc4cccc(O)c4)cc3n2C)c1", "note": "[Compound 170, N-[3-[6-(3-hydroxyanilino)-1-methyl-pyrrolo[3,2-c]pyridin-2-yl]phenyl]-N-methyl-acetamide]", "Emax": "50 to 100"}
{"molecule": "CC(=O)N(C)c1cccc(-c2cc3cnc(N4CCOCC4)cc3n2C)c1", "note": "[Compound 171, N-methyl-N-[3-(1-methyl-6-morpholino-pyrrolo[3,2-c]pyridin-2-yl)phenyl]acetamide]", "Emax": "50 to 100"}
{"molecule": "CC(=O)N(C)c1cccc(-c2cc3cnc(Nc4ccc(C(=O)N(C)C)cc4)cc3n2C)c1", "note": "[Compound 172, 4-[[2-[3-[acetyl(methyl)amino]phenyl]-1-methyl-pyrrolo[3,2-c]pyridin-6-yl]amino]-N,N-dimethyl-benzamide]", "Emax": "50 to 100"}
{"molecule": "CC(=O)N(C)c1cccc(-c2cc3cnc(Nc4ccc(S(C)(=O)=O)cc4)cc3n2C)c1", "note": "[Compound 173, N-methyl-N-[3-[1-methyl-6-(4-methylsulfonylanilino)pyrrolo[3,2-c]pyridin-2-yl]phenyl]acetamide]", "Emax": "30 to 50"}
{"molecule": "COc1cc(Nc2cc3[nH]c(-c4ccccc4)cc3cn2)cc(OC)c1OC", "note": "[Compound 174, 2-phenyl-N-(3,4,5-trimethoxyphenyl)-1H-pyrrolo[3,2-c]pyridin-6-amine]", "Emax": "50 to 100"}
{"molecule": "COc1ccc(Nc2cc3[nH]c(-c4ccccc4)cc3cn2)cc1OC", "note": "[Compound 175, N-(3,4-dimethoxyphenyl)-2-phenyl-1 H-pyrrolo[3,2-c]pyridin-6-amine]", "Emax": "50 to 100"}
{"molecule": "c1ccc(-c2cc3cnc(Nc4ccc(N5CCOCC5)cc4)cc3[nH]2)cc1", "note": "[Compound 176, N-(4-morpholinophenyl)-2-phenyl-1H-pyrrolo[3,2-c]pyridin-6-amine]", "Emax": "50 to 100"}
{"molecule": "CN1CCN(c2ccc(Nc3cc4[nH]c(-c5ccccc5)cc4cn3)cc2)CC1", "note": "[Compound 177, N-[4-(4-methylpiperazin-1-yl)phenyl]-2-phenyl-1H-pyrrolo[3,2-c]pyridin-6-amine]", "Emax": "50 to 100"}
{"molecule": "c1ccc(-c2cc3cnc(Nc4ccncc4)cc3[nH]2)cc1", "note": "[Compound 178, 2-phenyl-N-(4-pyridyl)-1H-pyrrolo[3,2-c]pyridin-6-amine]", "Emax": "30 to 50"}
{"molecule": "Fc1ccc(Nc2cc3[nH]c(-c4ccccc4)cc3cn2)cc1", "note": "[Compound 179, N-(4-fluorophenyl)-2-phenyl-1H-pyrrolo[3,2-c]pyridin-6-amine]", "Emax": "30 to 50"}
{"molecule": "Oc1cccc(Nc2cc3[nH]c(-c4ccccc4)cc3cn2)c1", "note": "[Compound 180, 3-[(2-phenyl-1H-pyrrolo[3,2-c]pyridin-6-yl)amino]phenol]", "Emax": "50 to 100"}
{"molecule": "c1ccc(-c2cc3cnc(N4CCOCC4)cc3[nH]2)cc1", "note": "[Compound 181, 4-(2-phenyl-1H-pyrrolo[3,2-c]pyridin-6-yl)morpholine]", "Emax": "> 100"}
{"molecule": "CN(C)C(=O)c1ccc(Nc2cc3[nH]c(-c4ccccc4)cc3cn2)cc1", "note": "[Compound 182, N,N-dimethyl-4-[(2-phenyl-1H-pyrrolo[3,2-c]pyridin-6-yl)amino]benzamide]", "Emax": "50 to 100"}
{"molecule": "CC(=O)Nc1cccc(Nc2cc3[nH]c(-c4ccccc4)cc3cn2)c1", "note": "[Compound 183, N-[3-[(2-phenyl-1H-pyrrolo[3,2-c]pyridin-6-yl)amino]phenyl]acetamide]", "Emax": "50 to 100"}
{"molecule": "c1ccc(Cn2c(-c3ccccc3)cc3cnc(Nc4ccncn4)cc32)cc1", "note": "[Compound 184, 1-benzyl-2-phenyl-N-pyrimidin-4-yl-pyrrolo[3,2-c]pyridin-6-amine]", "Emax": "30 to 50"}
{"molecule": "Fc1cccc(-c2cc3c(N4CCOCC4)nccc3[nH]2)c1", "note": "[Compound 187, 4-[2-(3-fluorophenyl)-1H-pyrrolo[3,2-c]pyridin-4-yl]morpholine]", "Emax": "30 to 50"}
{"molecule": "CN(C)C(=O)c1ccc(-c2cc3c(N4CCOCC4)nccc3n2C)cc1", "note": "[Compound 188, N,N-dimethyl-4-(1-methyl-4-morpholino-pyrrolo[3,2-c]pyridin-2-yl)benzamide]", "Emax": "0 to 30"}
{"molecule": "CN(C)c1ccc(-c2cc3c(N4CCOCC4)nccc3[nH]2)cc1", "note": "[Compound 189, N,N-dimethyl-4-(4-morpholino-1H-pyrrolo[3,2-c]pyridin-2-yl)aniline]", "Emax": "> 100"}
{"molecule": "c1cc2[nH]c(-c3ccsc3)cc2c(N2CCOCC2)n1", "note": "[Compound 191, 4-[2-(3-thienyl)-1H-pyrrolo[3,2-c]pyridin-4-yl]morpholine]", "Emax": "50 to 100"}
{"molecule": "COc1cc(OC)cc(-c2cc3c(N4CCOCC4)nccc3n2C)c1", "note": "[Compound 192, 4-[2-(3,5-dimethoxyphenyl)-1-methyl-pyrrolo[3,2-c]pyridin-4-yl]morpholine]", "Emax": "0 to 30"}
{"molecule": "COc1ccccc1-c1cc2c(N3CCOCC3)nccc2[nH]1", "note": "[Compound 193, 4-[2-(2-methoxyphenyl)-1H-pyrrolo[3,2-c]pyridin-4-yl]morpholine]", "Emax": "50 to 100"}
{"molecule": "Cn1c(-c2cccc(Cl)c2)cc2c(N3CCOCC3)nccc21", "note": "[Compound 195, 4-[2-(3-chlorophenyl)-1-methyl-pyrrolo[3,2-c]pyridin-4-yl]morpholine]", "Emax": "30 to 50"}
{"molecule": "FC(F)(F)c1cccc(-c2cc3c(Nc4cccnc4)nccc3[nH]2)c1", "note": "[Compound 196, N-(3-pyridyl)-2-[3-(trifluoromethyl)phenyl]-1H-pyrrolo[3,2-c]pyridin-4-amine]", "Emax": "50 to 100"}
{"molecule": "CS(=O)(=O)c1ccc(Nc2nccc3[nH]c(-c4cccc(C(F)(F)F)c4)cc23)cc1", "note": "[Compound 197, N-(4-methylsulfonylphenyl)-2-[3-(trifluoromethyl)phenyl]-1H-pyrrolo[3,2-c]pyridin-4-amine]", "Emax": "30 to 50"}
{"molecule": "CC(=O)Nc1ccc(Nc2nccc3[nH]c(-c4cccc(F)c4)cc23)cc1", "note": "[Compound 198, N-[4-[[2-(3-fluorophenyl)-1H-pyrrolo[3,2-c]pyridin-4-yl]amino]phenyl]acetamide]", "Emax": "50 to 100"}
